According to patent publication US11566057B2, “Long-acting co-agonists of the glucagon and GLP-1 receptors” (Merck Sharp & Dohme Corp., priority 2017, dated 2023):
Numbered stars: 1 amine (or outer) side, 2 acyl side, 3 side chain; on linkers, the order of the positions; unused ones are H or OH. Square brackets hold non-standard residues; d marks the D form. Side chains are listed from the residue outwards. Peptide text beside a SMILES is read from it. * marks the point of attachment. C20 diacid = O=C(O)CCCCCCCCCCCCCCCCCCC(=O)*; Phe(4-CH2NH2) = NCc1ccc(C[C@H](N)C(=O)O)cc1; C18 diacid = O=C(O)CCCCCCCCCCCCCCCCC(=O)*; γGlu = O=C(O)[C@H](CCC(=O)[*:2])N[*:1]; Met(O2) = CS(=O)(=O)CC[C@H](N)C(=O)O; αMeD = C[C@](N)(CC(=O)O)C(=O)O; AEEA = NCCOCCOCC(=O)O; Aib = CC(C)(N)C(=O)O

target: T1, human GCGR (Homo sapiens, UniProt P47871); assay: cAMP activity assay at the Glucagon receptor (GCGR); type: cell-based; conditions: cells expressing human GCGR, cAMP production; buffer with or without 20% human serum (not stated which); read-out: GCGR EC50 human
T1 construct: expressed in transfected cells; growth medium holds Blasticidin and Hygromycin
T1 sequence (P47871 26-477): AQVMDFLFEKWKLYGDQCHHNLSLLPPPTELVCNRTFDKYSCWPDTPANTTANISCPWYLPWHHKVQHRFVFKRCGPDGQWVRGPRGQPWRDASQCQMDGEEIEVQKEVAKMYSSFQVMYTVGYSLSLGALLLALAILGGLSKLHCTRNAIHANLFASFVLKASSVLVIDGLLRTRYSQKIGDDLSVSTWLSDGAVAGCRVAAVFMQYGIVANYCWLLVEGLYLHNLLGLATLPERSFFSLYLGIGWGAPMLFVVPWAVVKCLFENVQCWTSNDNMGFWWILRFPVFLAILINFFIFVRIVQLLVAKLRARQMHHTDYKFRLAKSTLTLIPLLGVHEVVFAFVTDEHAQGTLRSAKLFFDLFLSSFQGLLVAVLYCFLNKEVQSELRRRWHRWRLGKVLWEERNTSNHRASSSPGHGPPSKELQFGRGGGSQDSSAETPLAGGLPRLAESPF
Protocol: Activity of the peptides at the Glucagon receptor (GCGR) and GLP-1 receptor (GLP1R) was measured in a cAMP activity assay.
GCG/GLP-1 receptor co-agonist peptides were dissolved in 100% DMSO (dimethyl sulfoxide) and serially diluted to generate 10 point titrations. The peptide solutions were then transferred into 384-well assay plates (150 nL/well). Assay ready frozen cells expressing human GLP1R or human GCGR were suspended in growth media consisting of DMEM medium (GIBCO®), 10% FBS (GIBCO®), 1×NEAA(GIBCO®), 1×P/S (GIBCO®), 10 ug/mL Blasticidin (GIBCO®) and 200 μg/mL Hygromycin (GIBCO®). […] The cell suspensions (15 μL) were then added to the assay plates containing the peptide solutions (30,000 cells/well for human GCGR; 10,000 cells/well for human GLP1R). The cells were incubated for 1 hour at room temperature in the dark. Production of cAMP was determined using HitHunter™ cAMPXS kits (DiscoverX) following manufacturer protocol. The plates were incubated for overnight at room temperature in the dark. Luminescence was measured using an EnVision Multilabel plate reader (Perkin Elmer). Native GLP-1 and Glucagon (Bachem) are used as control peptides. EC50 values were calculated using uses a 4 parameter logistic fit based on the Levenberg-Marquardt algorithm.

EC50 | Compound
> 5 nM | CC(C)C[C@H](NC(=O)[C@H](Cc1ccc(O)cc1)NC(=O)[C@H](CCCCN)NC(=O)[C@H](CO)NC(=O)[C@H](Cc1ccc(O)cc1)NC(=O)[C@H](CC(=O)O)NC(=O)[C@H](CO)NC(=O)[C@@H](NC(=O)[C@H](Cc1ccccc1)NC(=O)[C@@H](NC(=O)CNC(=O)[C@H](CCC(N)=O)NC(=O)C(C)(C)NC(=O)[C@@H](N)Cc1c[nH]cn1)[C@@H](C)O)[C@@H](C)O)C(=O)N[C@@H](CC(=O)O)C(=O)N[C@@H](CCC(=O)O)C(=O)N[C@@H](CCCNC(=N)N)C(=O)N[C@@H](C)C(=O)N[C@@H](C)C(=O)N[C@@H](CCCCNC(=O)COCCOCCNC(=O)COCCOCCNC(=O)CC[C@H](NC(=O)CCCCCCCCCCCCCCCCC(=O)O)C(=O)O)C(=O)N[C@@H](CC(=O)O)C(=O)N[C@@H](Cc1ccccc1)C(=O)N[C@H](C(=O)N[C@@H](CCC(N)=O)C(=O)N[C@@H](Cc1c[nH]c2ccccc12)C(=O)N[C@@H](CC(C)C)C(=O)N[C@@H](CCS(C)(=O)=O)C(=O)N[C@@](C)(CC(=O)O)C(=O)N[C@H](C(N)=O)[C@@H](C)O)C(C)C [TP613] (H-H[Aib]QGTFTSDYSKYLDERAAK([AEEA-AEEA-γGlu-C18 diacid])DFVQWL[Met(O2)][αMeD]T-NH2)

same assay, conditions: ratio of GCGR EC50 to GLP1R EC50

hGCGR/hGLP1R (hTone) | Compound
7.9 | CC(C)C[C@H](NC(=O)[C@H](Cc1c[nH]c2ccccc12)NC(=O)[C@H](CCC(N)=O)NC(=O)[C@@H](NC(=O)[C@H](Cc1ccccc1)NC(=O)[C@H](CC(=O)O)NC(=O)[C@H](CCC(N)=O)NC(=O)[C@H](C)NC(=O)[C@H](C)NC(=O)[C@H](CCCNC(=N)N)NC(=O)C(C)(C)NC(=O)[C@H](CC(=O)O)NC(=O)[C@H](CC(C)C)NC(=O)[C@H](Cc1ccc(O)cc1)NC(=O)[C@H](CCCCN)NC(=O)[C@H](CO)NC(=O)[C@H](Cc1ccc(O)cc1)NC(=O)[C@H](CC(=O)O)NC(=O)[C@H](CO)NC(=O)[C@@H](NC(=O)[C@H](Cc1ccccc1)NC(=O)[C@@H](NC(=O)CNC(=O)[C@H](CCC(N)=O)NC(=O)[C@@H](CO)NC(=O)[C@@H](N)Cc1c[nH]cn1)[C@@H](C)O)[C@@H](C)O)C(C)C)C(=O)N[C@@H](CC(C)C)C(=O)N[C@@H](CCCCNC(=O)COCCOCCNC(=O)COCCOCCNC(=O)CC[C@H](NC(=O)CCCCCCCCCCCCCCCCC(=O)O)C(=O)O)C(=O)N[C@H](C(=O)N[C@@H](CCCCN)C(=O)N[C@@H](CCC(N)=O)C(=O)O)[C@@H](C)O [TP685] (H-H[dS]QGTFTSDYSKYLD[Aib]RAAQDFVQWLLK([AEEA-AEEA-γGlu-C18 diacid])TKQ-OH; N-terminus and C-terminus assumed)
>6 | CC(C)C[C@H](NC(=O)[C@H](Cc1ccc(O)cc1)NC(=O)[C@H](CCCCN)NC(=O)[C@H](CO)NC(=O)[C@H](Cc1ccc(O)cc1)NC(=O)[C@H](CC(=O)O)NC(=O)[C@H](CO)NC(=O)[C@@H](NC(=O)[C@H](Cc1ccccc1)NC(=O)[C@@H](NC(=O)CNC(=O)[C@H](CCC(N)=O)NC(=O)C(C)(C)NC(=O)[C@@H](N)Cc1c[nH]cn1)[C@@H](C)O)[C@@H](C)O)C(=O)N[C@@H](CC(=O)O)C(=O)N[C@@H](CCC(=O)O)C(=O)N[C@@H](CCCNC(=N)N)C(=O)N[C@@H](C)C(=O)N[C@@H](C)C(=O)N[C@@H](CCCCNC(=O)COCCOCCNC(=O)COCCOCCNC(=O)CC[C@H](NC(=O)CCCCCCCCCCCCCCCCC(=O)O)C(=O)O)C(=O)N[C@@H](CC(=O)O)C(=O)N[C@@H](Cc1ccccc1)C(=O)N[C@H](C(=O)N[C@@H](CCC(N)=O)C(=O)N[C@@H](Cc1c[nH]c2ccccc12)C(=O)N[C@@H](CC(C)C)C(=O)N[C@@H](CCS(C)(=O)=O)C(=O)N[C@@](C)(CC(=O)O)C(=O)N[C@H](C(N)=O)[C@@H](C)O)C(C)C [TP613] (H-H[Aib]QGTFTSDYSKYLDERAAK([AEEA-AEEA-γGlu-C18 diacid])DFVQWL[Met(O2)][αMeD]T-NH2)
0.8 | CC(C)C[C@H](NC(=O)[C@H](CC(C)C)NC(=O)[C@H](CCCCN)NC(=O)[C@H](CO)NC(=O)[C@H](Cc1ccc(O)cc1)NC(=O)[C@H](CC(=O)O)NC(=O)[C@H](CO)NC(=O)[C@@H](NC(=O)[C@H](Cc1ccccc1)NC(=O)[C@@H](NC(=O)CNC(=O)[C@H](CCC(N)=O)NC(=O)C(C)(C)NC(=O)[C@@H](N)Cc1c[nH]cn1)[C@@H](C)O)[C@@H](C)O)C(=O)N[C@@H](CC(=O)O)C(=O)N[C@@H](C)C(=O)N[C@@H](CCCNC(=N)N)C(=O)N[C@@H](C)C(=O)N[C@@H](C)C(=O)N[C@@H](CCCCNC(=O)COCCOCCNC(=O)COCCOCCNC(=O)CC[C@H](NC(=O)CCCCCCCCCCCCCCCCC(=O)O)C(=O)O)C(=O)N[C@@H](CC(=O)O)C(=O)N[C@@H](Cc1ccccc1)C(=O)N[C@H](C(=O)N[C@@H](CCC(N)=O)C(=O)N[C@@H](Cc1c[nH]c2ccccc12)C(=O)N[C@@H](CC(C)C)C(=O)N[C@@H](CCS(C)(=O)=O)C(=O)N[C@@](C)(CC(=O)O)C(=O)N[C@H](C(N)=O)[C@@H](C)O)C(C)C [TP640] (H-H[Aib]QGTFTSDYSKLLDARAAK([AEEA-AEEA-γGlu-C18 diacid])DFVQWL[Met(O2)][αMeD]T-NH2)
2.3 | CC(C)C[C@H](NC(=O)[C@H](Cc1ccc(O)cc1)NC(=O)[C@H](CCCCN)NC(=O)[C@H](CO)NC(=O)[C@H](Cc1ccc(O)cc1)NC(=O)[C@H](CC(=O)O)NC(=O)[C@H](CO)NC(=O)[C@@H](NC(=O)[C@H](Cc1ccccc1)NC(=O)[C@@H](NC(=O)CNC(=O)[C@H](CCC(N)=O)NC(=O)C(C)(C)NC(=O)[C@@H](N)Cc1c[nH]cn1)[C@@H](C)O)[C@@H](C)O)C(=O)N[C@@H](CC(=O)O)C(=O)N[C@@H](C)C(=O)N[C@@H](CCCNC(=N)N)C(=O)N[C@@H](C)C(=O)N[C@@H](C)C(=O)N[C@@H](CCC(N)=O)C(=O)N[C@@H](CC(=O)O)C(=O)N[C@@H](Cc1ccccc1)C(=O)N[C@H](C(=O)N[C@@H](CCC(N)=O)C(=O)N[C@@H](Cc1c[nH]c2ccccc12)C(=O)N[C@@H](CC(C)C)C(=O)N[C@@H](CCS(C)(=O)=O)C(=O)N[C@@H](Cc1ccc(CNC(=O)COCCOCCNC(=O)COCCOCCNC(=O)CC[C@H](NC(=O)CCCCCCCCCCCCCCCCC(=O)O)C(=O)O)cc1)C(=O)N[C@H](C(N)=O)[C@@H](C)O)C(C)C [TP604] (H-H[Aib]QGTFTSDYSKYLDARAAQDFVQWL[Met(O2)][Phe(4-CH2NH2)]([AEEA-AEEA-γGlu-C18 diacid])T-NH2; N-terminus assumed)

Continued, compound first:

Compound | hGCGR/hGLP1R (hTone)
HsQGTFTSDNle(1,2,3-triazole-4-C4-Lys-C16)SKYLDARAAQDFVQWLLDT-NH2 (HXQGTFTSDXSKYLDARAAQDFVQWLLDT; D-Ser, Nle-triazole-C4-Lys-C16 lipid; C-terminal amide; peptide TP831; (2)..(2) Xaa is D-Serine; (10)..(10) Xaa is Nle(1,2,3-triazole-4-C4-Lys-C16); (29)..(29) Xaa is C-terminal amide) | 1.66
CC(C)C[C@H](NC(=O)[C@H](Cc1ccc(O)cc1)NC(=O)[C@H](CCCCN)NC(=O)[C@H](CO)NC(=O)[C@H](Cc1ccc(O)cc1)NC(=O)[C@H](CC(=O)O)NC(=O)[C@H](CO)NC(=O)[C@@H](NC(=O)[C@H](Cc1ccccc1)NC(=O)[C@@H](NC(=O)CNC(=O)[C@H](CCC(N)=O)NC(=O)C(C)(C)NC(=O)[C@@H](N)Cc1c[nH]cn1)[C@@H](C)O)[C@@H](C)O)C(=O)N[C@@H](CC(=O)O)C(=O)N[C@@H](C)C(=O)N[C@@H](CCCCN)C(=O)N[C@@H](C)C(=O)N[C@@H](C)C(=O)N[C@@H](CCCCNC(=O)COCCOCCNC(=O)COCCOCCNC(=O)CC[C@H](NC(=O)CCCCCCCCCCCCCCCCC(=O)O)C(=O)O)C(=O)N[C@@H](CC(=O)O)C(=O)N[C@@H](Cc1ccccc1)C(=O)N[C@H](C(=O)N[C@@H](CCC(N)=O)C(=O)N[C@@H](Cc1c[nH]c2ccccc12)C(=O)N[C@@H](CC(C)C)C(=O)N[C@@H](CCS(C)(=O)=O)C(=O)N[C@@H](CC(=O)O)C(=O)N[C@H](C(N)=O)[C@@H](C)O)C(C)C [TP598] (H-H[Aib]QGTFTSDYSKYLDAKAAK([AEEA-AEEA-γGlu-C18 diacid])DFVQWL[Met(O2)]DT-NH2; N-terminus assumed) | 2.3
CC(C)C[C@H](NC(=O)[C@H](Cc1ccc(O)cc1)NC(=O)[C@H](CCCCN)NC(=O)[C@H](CO)NC(=O)[C@H](Cc1ccc(O)cc1)NC(=O)[C@H](CC(=O)O)NC(=O)[C@H](CO)NC(=O)[C@@H](NC(=O)[C@H](Cc1ccccc1)NC(=O)[C@@H](NC(=O)CNC(=O)[C@H](CCC(N)=O)NC(=O)C(C)(C)NC(=O)[C@@H](N)Cc1c[nH]cn1)[C@@H](C)O)[C@@H](C)O)C(=O)N[C@@H](CC(=O)O)C(=O)N[C@@H](C)C(=O)N[C@@H](CCCNC(=N)N)C(=O)N[C@@H](C)C(=O)N[C@@H](C)C(=O)N[C@@H](CCC(N)=O)C(=O)N[C@@H](CC(=O)O)C(=O)N[C@@H](Cc1ccccc1)C(=O)N[C@H](C(=O)N[C@@H](Cc1ccc(CNC(=O)COCCOCCNC(=O)COCCOCCNC(=O)CC[C@H](NC(=O)CCCCCCCCCCCCCCCCC(=O)O)C(=O)O)cc1)C(=O)N[C@@H](Cc1c[nH]c2ccccc12)C(=O)N[C@@H](CC(C)C)C(=O)N[C@@H](CC(C)C)C(=O)N[C@@H](CC(=O)O)C(=O)N[C@H](C(N)=O)[C@@H](C)O)C(C)C [TP583] (H-H[Aib]QGTFTSDYSKYLDARAAQDFV[Phe(4-CH2NH2)]([AEEA-AEEA-γGlu-C18 diacid])WLLDT-NH2; N-terminus assumed) | 8.6
CC(C)C[C@H](NC(=O)[C@H](Cc1ccc(O)cc1)NC(=O)[C@H](CCCCN)NC(=O)[C@H](CO)NC(=O)[C@H](Cc1ccc(O)cc1)NC(=O)[C@H](CC(=O)O)NC(=O)[C@H](CO)NC(=O)[C@@H](NC(=O)[C@H](Cc1ccccc1)NC(=O)[C@@H](NC(=O)CNC(=O)[C@H](CCC(N)=O)NC(=O)C(C)(C)NC(=O)[C@@H](N)Cc1c[nH]cn1)[C@@H](C)O)[C@@H](C)O)C(=O)N[C@@H](CC(=O)O)C(=O)N[C@@H](C)C(=O)N[C@@H](CCCNC(=N)N)C(=O)N[C@@H](C)C(=O)N[C@@H](C)C(=O)N[C@@H](CCC(N)=O)C(=O)N[C@@H](Cc1ccc(CNC(=O)COCCOCCNC(=O)COCCOCCNC(=O)CC[C@H](NC(=O)CCCCCCCCCCCCCCCCCCC(=O)O)C(=O)O)cc1)C(=O)N[C@@H](Cc1ccccc1)C(=O)N[C@H](C(=O)N[C@@H](CCC(N)=O)C(=O)N[C@@H](Cc1c[nH]c2ccccc12)C(=O)N[C@@H](CC(C)C)C(=O)N[C@@H](CC(C)C)C(=O)N[C@@H](CC(=O)O)C(=O)N[C@H](C(N)=O)[C@@H](C)O)C(C)C [TP585] (H-H[Aib]QGTFTSDYSKYLDARAAQ[Phe(4-CH2NH2)]([AEEA-AEEA-γGlu-C20 diacid])FVQWLLDT-NH2; N-terminus assumed) | 2.0
